Test results published in ChEMBL document CHEMBL5661955, “ASAP - In vitro cytotoxicity” (2024).
Where “and” joins values, the source holds several entries; their conditions need not be identical. Equal entries are not always repeated.

What was measured:
[1] = Functional CPE-based assay to measure dose dependent changes in cell viability from drug treatment in Vero E6 miRFP670 cells (cotreated with P-gp inhibitor, CP100356). Cells are treated with antiviral candidates that have been serially diluted. Cytotoxicity is reported via analysis of MTS assays in uninfected cells. The assay has been performed by KU Leuven.; type: toxicity, Vero C1008; conditions: chlorocebus sabaeus, p-gp concentration 500 nM
[2] = Functional assay to measure dose dependent changes in cell viability from drug treatment in Vero E6 miRFP670 cells (cotreated with P-gp inhibitor, CP100356) that are infected with Dengue virus type 2 New Guinea C. […] Cytotoxicity is reported via via analysis of DAPI count using high-content imager. The assay has been performed by KU Leuven.; type: toxicity, cell-based, Vero C1008; conditions: chlorocebus sabaeus, p-gp concentration 500 nM
[3] = Vero E6 miRFP670 cells, with CP100356 (P-gp inhibitor, concentration not stated)
[4] = with CP100356 (P-gp inhibitor, concentration not stated)

| SMILES | CC50 [1, 3] | CC50 [2, 4] | CC50 ([1]; vero c1008) | CC50 ([2]; vero c1008) |
| --- | --- | --- | --- | --- |
| NCc1ccc(-c2csc3cc(C(=O)Nc4ccc5c(c4)CNC5)ccc23)cc1 | 31.9 µM | 4.14 µM |  |  |
| O=C(Nc1cc2c(c(C3=CC[C@H](O)CC3)c1)CNC2)c1cc(Cl)cc2[nH]ncc12 | > 50 µM | > 50 µM |  |  |
| COc1cccc(-c2nc3c(C(=O)Nc4ccc5c(c4)CNC5)cc(F)cc3[nH]2)c1 | 2.86 µM | 5.1 µM |  |  |
| N#CCc1cc(NC(=O)c2cc(F)cc3[nH]ncc23)cc2c1CNC2 | > 50 µM | > 50 µM |  |  |
| N#Cc1ccc(-c2nc3c(C(=O)Nc4ccc5c(c4)CNC5)cc(F)cc3[nH]2)cc1 | > 50 µM | > 50 µM |  |  |
| O=C(Nc1ccc2c(c1)CNC2)c1cccc2c(C3CNC3)n[nH]c12 | > 50 µM | > 50 µM |  |  |
| CC(C)(C)OC(=O)N1Cc2ccc(N[C@H](C(=O)O)c3cc(Cl)cc4[nH]ncc34)cc2C1 | > 50 µM | 28.9 µM |  |  |
| O=C(Nc1ccc2c(c1)CNC2)c1cc(F)cc2[nH]c(-c3cccc(F)c3)nc12 | 3.69 µM | 2.47 µM |  |  |
| O=C(Nc1ccc2c(c1)CNC2)c1cccc2[nH]c(=O)[nH]c12 | > 50 µM | 33.3 µM |  |  |
| O=C(NC1CCOCC1)[C@H](Nc1ccc2c(c1)CNC2)c1cc(Cl)cc2[nH]ncc12 | > 50 µM | > 50 µM |  |  |
| O=C(Nc1ccc2c(c1)CNC2)c1cc(Cl)cc2cc[nH]c12 | 5.91 µM | 19.7 µM |  |  |
| CO[C@H]1C[C@H](n2ncc3c(C(=O)Nc4ccc5c(c4)CNC5)cc(Cl)cc32)C1 | 14 µM | 47.5 µM |  |  |
| O=C(Nc1ccc2c(c1)CN[C@H]2C[C@H](O)CO)c1cc(F)cc2[nH]ncc12 | > 50 µM | 31.2 µM |  |  |
| FC(F)(F)Oc1cc(Cl)cc2c(Cc3ccc(-c4nnn[nH]4)cc3)c[nH]c12 | 30.6 µM | 11.1 µM |  |  |
| CNC(=O)[C@H](Nc1ccc2c(c1)CNC2)c1cc(Cl)cc2[nH]c(-c3ccccc3)nc12 |  | > 50 µM | 9.01 µM and 21.4 µM |  |
| C[C@H]1C(=O)Nc2ccc(C(=O)Nc3ccc4c(c3)CNC4)cc21 | > 50 µM | > 50 µM |  |  |
| CN(c1ccc2c(c1)CNC2)[C@H](C(=O)NCC(F)F)c1cc(Cl)cc(C2CC2)c1 | 9.32 µM | 14.3 µM |  |  |
| O=C(NCCCn1ccnc1)[C@H](Nc1ccc2c(c1)CNC2)c1cc(Cl)cc(C2CC2)c1 | 11.5 µM | > 50 µM |  |  |
| CC(C)NC(=O)[C@H](Nc1ccc2c(c1)CNC2)c1cc(Cl)cc2[nH]c(-c3ccccc3)nc12 |  |  | 5.66 µM and 9.23 µM and 13.7 µM | 23.2 µM and 7.47 µM and 13.6 µM |
| O=C(Nc1ccc2c(c1)CNC2)c1cc(F)cc(-c2cnc(C3CC3)s2)c1 | 19.7 µM | 16.4 µM |  |  |
| O=C(Nc1ccc2c(c1)CNC2)c1cc(F)cc(-c2cccnc2)c1 | 15.4 µM | > 50 µM |  |  |
| O=C(Nc1ccc2c(c1)CNC2)c1cc(F)cc2c1CCC2 | 33 µM | > 50 µM |  |  |
| O=C(Nc1ccc2c(c1)CNC2)c1cc(Cl)cc2cn[nH]c12 | > 50 µM | 5 µM |  |  |
| O=C(Nc1cc(Cl)cc(-c2cnn(Cc3ccc(C(=O)O)cc3)c2)c1)OCc1ccccc1 | 35.5 µM | 24 µM |  |  |
| O=C(NCC(F)F)[C@H](Nc1ccc2c(c1)CNC2)c1cc(F)cc2[nH]ncc12 | > 50 µM | > 50 µM |  |  |
| O=C(Nc1ccc2c(c1)CN[C@H]2CCO)c1cc(F)cc2[nH]ncc12 | > 50 µM | 42.5 µM |  |  |

| SMILES | CC50 [1, 3] | CC50 [2, 4] | CC50 ([1]; vero c1008) | CC50 ([2]; vero c1008) |
| --- | --- | --- | --- | --- |
| O=C(Nc1ccc2c(n1)CNC2)c1cc(Cl)cc2[nH]ncc12 | > 50 µM | > 50 µM |  |  |
| O=C(Nc1ccc2c(c1)CNC2)c1cc(Cl)cc2[nH]c(-c3cc(C4CC4)[nH]n3)nc12 | 1.51 µM | 1.27 µM |  |  |
| CCCn1cc2c(C(=O)Nc3ccc4c(c3)CNC4)cc(Cl)cc2n1 | 17.4 µM | 21.5 µM |  |  |
| O=C(Nc1ccc2c(c1)CN[C@H]2CC1CC1)c1cc(F)cc2[nH]ncc12 | 11.8 µM | 18.7 µM |  |  |
| O=C(O)Cc1c[nH]c2cc(-c3cc(Cl)cc(NC(=O)OCc4ccccc4)c3)ccc12 | 32.1 µM | 18 µM |  |  |
| O=C(Nc1ccc2c(c1)CNC2)c1cc(Cl)cc2c1cnn2C[C@H]1CCCO1 | 26.9 µM | 37.1 µM |  |  |
| O=C(Nc1ccc2c(c1)CNC2)c1cc(Cl)cc2[nH]c(-c3ccnn3C3CC3)nc12 | 1.78 µM | 11.7 µM |  |  |
| O=C(Nc1cc2c(c(C3=CCOCC3)c1)CNC2)c1cc(F)cc2[nH]ncc12 | > 50 µM | > 50 µM |  |  |
| O=C(Nc1ccc2c(c1)CNC2)c1cc(F)cc(-c2c[nH]c(=O)c(F)c2)c1 | > 50 µM | 25.4 µM |  |  |
| O=C(Nc1cc2c(cc1C1CC1)CNC2)c1cc(F)cc2[nH]ncc12 | > 50 µM | 10.1 µM |  |  |
| O=C(NCC(F)F)[C@H](Nc1ccc2c(c1)CNC2)c1cc(F)cc2[nH]ccc12 | > 50 µM | 31.1 µM |  |  |
| O=C(Nc1ccc2c(c1)CNC2)c1cc(Cl)cc2[nH]c(-c3c[nH]c(=O)c(Br)c3)nc12 | > 50 µM | 14.3 µM |  |  |
| O=C(Nc1ccc2c(c1)CNC2)c1cc(F)cc2[nH]c(-c3ccc(F)cc3)nc12 | 6.47 µM | 4.33 µM |  |  |
| O=C(Nc1ccc2c(c1)CNC2)c1cc(F)cc2nn(-c3ccccn3)nc12 |  |  | 7.85 µM and 1.85 µM | 7.3 µM and 1.92 µM |
| Cc1cccc(-c2nc3c(C(=O)Nc4ccc5c(c4)CNC5)cc(Cl)cc3[nH]2)c1O | 3.03 µM | 9 µM | 3.17 µM | 8.94 µM |
| CC(C)n1cc2c(C(=O)Nc3ccc4c(c3)CNC4)cc(Cl)cc2n1 | 11.8 µM | 22.7 µM |  |  |
| COc1ccccc1-c1nc2c(C(=O)Nc3ccc4c(c3)CNC4)cc(F)cc2[nH]1 | > 50 µM | 15.6 µM |  |  |
| O=C(Nc1cc(Cl)cc(-c2ccc3[nH]c(C(=O)O)cc3c2)c1)OCc1ccccc1 | 25.2 µM | 27.1 µM |  | 14.3 µM |
| O=C(Nc1cc2c(c(C3=CCS(=O)(=O)CC3)c1)CNC2)c1cc(F)cc2[nH]ncc12 | > 50 µM | > 50 µM |  |  |
| O=C(Nc1ccc2c(c1)CNC2)c1cc(F)cc2[nH]c(-c3cnc(C4CC4)o3)nc12 |  | 1.86 µM | 3.86 µM and 1.41 µM | 2.55 µM |
| Clc1cc(CNc2ccc3c(c2)CNC3)c2cn[nH]c2c1 | 29.8 µM | 21.4 µM |  |  |
| Cc1cccc(-c2nc3c(C(=O)Nc4ccc5c(c4)CNC5)cc(F)cc3[nH]2)c1 | 2.76 µM | 0.838 µM |  |  |
| CC(=O)Nc1cc(Br)cc(C(=O)Nc2ccc3c(c2)CNC3)c1 | > 50 µM | 0.561 µM |  |  |
| O=C(Nc1ccc2c(c1)CNC2)c1cc(Cl)cc2ccccc12 | 10.1 µM | 25.1 µM |  |  |
| O=C(Nc1ccc2c(c1)CNC2)c1cccc2c1[C@]1(CCNC1)C(=O)N2 | > 50 µM | > 50 µM |  |  |
| NCc1csc2cc(C(=O)Nc3ccc4c(c3)CNC4)ccc12 | > 50 µM | 5.74 µM |  |  |

| SMILES | CC50 [1, 3] | CC50 [2, 4] | CC50 ([1]; vero c1008) | CC50 ([2]; vero c1008) |
| --- | --- | --- | --- | --- |
| Cn1cc2c(C(=O)Nc3ccc4c(c3)CNC4)cc(F)cc2n1 | > 50 µM | > 50 µM |  |  |
| O=C(Nc1ccc2c(c1)CNC2)c1cc(Br)cc2[nH]c(=O)[nH]c12 | > 50 µM | 4.79 µM |  |  |
| COc1cc(-c2cc(NC(=O)c3cc(F)cc4[nH]ncc34)cc3c2CNC3)ccn1 | > 50 µM | > 50 µM |  |  |
| O=C(Nc1ccc2c(c1)CNC2)c1cc(F)cc(-c2cn[nH]c2)c1 | > 50 µM | 37.2 µM |  |  |
| NCc1cccc(-c2csc3cc(C(=O)Nc4ccc5c(c4)CNC5)ccc23)c1 | 5.68 µM | 3.57 µM |  |  |
| O=C1Nc2ccc(C(=O)Nc3ccc4c(c3)CNC4)cc2C1=O | > 50 µM | 25.7 µM |  |  |
| O=C(Nc1ccc2c(c1)CNC2)c1ccc2c(C3=CCNCC3)csc2c1 | 47.1 µM | 18.8 µM |  |  |
| Cn1c(=O)[nH]c2c(C(=O)Nc3ccc4c(c3)CNC4)cc(Br)cc21 | 34.2 µM | > 50 µM |  |  |
| O=C(Nc1cc(Cl)cc(C(=O)Nc2ccc(-n3nn[nH]c3=O)cc2)c1)OCc1ccccc1 | > 50 µM | 31.8 µM |  |  |
| O=C(NCC(F)F)[C@H](Nc1cnc2c(c1)CNC2)c1cc(Cl)cc(C2CC2)c1 | > 50 µM | > 50 µM |  |  |
| O=C(NCC(F)F)[C@H](Nc1cc2c(cc1Br)CNC2)c1cc(Cl)cc(C2CC2)c1 | 5.82 µM | 6.39 µM |  |  |
| Cc1ncc(-c2cc(F)cc(C(=O)Nc3ccc4c(c3)CNC4)c2)s1 | 23.1 µM | > 50 µM |  |  |
| Cc1cc(-c2cc(F)cc(C(=O)Nc3ccc4c(c3)CNC4)c2)[nH]n1 | > 50 µM | > 50 µM |  |  |
| O=C(Nc1ccc2c(c1)CNC2)c1cccc2[nH]c(C(F)(F)F)cc12 | 47.3 µM | > 50 µM |  |  |
| Cc1cnccc1-c1cc(NC(=O)c2cc(F)cc3[nH]ncc23)cc2c1CNC2 | > 50 µM | > 50 µM |  |  |
| O=C1Cc2cc(C(=O)Nc3ccc4c(c3)CNC4)ccc2N1 |  | > 50 µM | 8.74 µM and > 50 µM |  |
| C=CC[C@H]1NCc2cc(NC(=O)c3cc(Cl)cc4[nH]ncc34)ccc21 | 11.8 µM | 3.12 µM |  |  |
| O=C(Nc1ccc2c(c1)CNC2)c1cc(F)cc2[nH]c(-c3ccccc3)nc12 | 5.81 µM |  | 4.83 µM | > 50 µM and 6.86 µM |
| O=C(Nc1cc2c(c(-c3c[nH]c(=O)c(F)c3)c1)CNC2)c1cc(F)cc2[nH]ncc12 | > 50 µM | > 50 µM |  |  |
| O=C(Nc1ccc2c(c1)CNC2)c1cc(F)c2[nH]ccc2c1 | 48.1 µM | > 50 µM |  |  |
| O=C(NCc1cccnc1)[C@H](Nc1ccc2c(c1)CNC2)c1cc(Cl)cc2[nH]ncc12 | 8.32 µM | > 50 µM |  |  |
| O=C(Nc1cc2c(cc1Br)CNC2)c1cc(F)cc2[nH]ncc12 | 46.1 µM | > 50 µM |  |  |
| N#Cc1cccc(-c2nc3c(C(=O)Nc4ccc5c(c4)CNC5)cc(Cl)cc3[nH]2)c1 | 6.67 µM | > 50 µM |  |  |
| CNC(=O)[C@H](Nc1ccc2c(c1)CNC2)c1cc(Cl)cc2[nH]ncc12 | > 50 µM | 5.53 µM |  |  |
| N#Cc1cc2c(cc1NC(=O)c1cc(F)cc3[nH]ncc13)CNC2 | > 50 µM | > 50 µM |  |  |
| Cc1ncc(-c2cc(F)cc(C(=O)Nc3ccc4c(c3)CNC4)c2)o1 | 11.9 µM | 12.5 µM |  |  |
